What follows are molecules tested against T1, Protein-glutamine gamma-glutamyltransferase (Homo sapiens, UniProt P21980) (assay: Inhibition of human recombinant His6-tagged TG2 expressed in insect cells assessed as reduction in incorporation of dansylcadaverine into N,N-dimethylcasein measured for 30 mins by fluorescence assay).
T1 sequence (P21980 whole entry): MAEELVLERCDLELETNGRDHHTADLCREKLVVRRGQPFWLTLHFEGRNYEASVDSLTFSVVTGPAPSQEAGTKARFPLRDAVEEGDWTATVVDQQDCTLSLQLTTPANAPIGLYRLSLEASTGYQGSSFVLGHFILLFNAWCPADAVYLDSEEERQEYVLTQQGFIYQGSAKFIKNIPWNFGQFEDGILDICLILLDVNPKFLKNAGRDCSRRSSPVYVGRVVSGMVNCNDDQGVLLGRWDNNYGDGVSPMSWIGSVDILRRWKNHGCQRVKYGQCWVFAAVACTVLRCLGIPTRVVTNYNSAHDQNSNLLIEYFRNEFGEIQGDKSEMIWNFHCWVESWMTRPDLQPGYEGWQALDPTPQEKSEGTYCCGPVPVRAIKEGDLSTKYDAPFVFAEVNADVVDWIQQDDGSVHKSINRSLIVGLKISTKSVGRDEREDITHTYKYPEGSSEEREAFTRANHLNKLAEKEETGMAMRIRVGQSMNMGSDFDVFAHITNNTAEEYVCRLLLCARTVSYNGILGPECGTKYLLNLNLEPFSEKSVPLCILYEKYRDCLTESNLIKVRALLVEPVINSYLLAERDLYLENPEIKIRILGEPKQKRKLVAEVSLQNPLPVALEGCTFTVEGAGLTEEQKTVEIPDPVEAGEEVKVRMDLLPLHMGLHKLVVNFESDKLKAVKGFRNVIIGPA
Set-up: species or system Insect cell
An IC50 of at most 25 nM was found for `CNC(=O)C(=O)CC[C@H](NC(=O)c1cc2c(Br)cccc2o1)C(=O)Nc1cccn(CC(=O)NC2C3CC4CC(C3)CC2C4)c1=O` (stereo not given in full) in this work.
An IC50 of at most 25 nM was found for `CNC(=O)C(=O)CC[C@H](NC(=O)c1cc2ccccc2o1)C(=O)Nc1cccn(CC(=O)NC2C3CC4CC(C3)CC2C4)c1=O` (stereo not given in full) in this work.
An IC50 of at most 25 nM was found for `CNC(=O)C(=O)CC[C@H](NC(=O)c1oc2ccccc2c1Cl)C(=O)Nc1cccn(CC(=O)NC2C3CC4CC(C3)CC2C4)c1=O` (stereo not given in full) in this work.
An IC50 of at most 25 nM was found for `CNC(=O)C(=O)CC[C@H](NC(=O)c1cc2c(F)c(F)ccc2[nH]1)C(=O)Nc1cccn(CC(=O)NC2C3CC4CC(C3)CC2C4)c1=O` (stereo not given in full) in this work.
An IC50 of at most 25 nM was found for `CNC(=O)C(=O)CC[C@H](NC(=O)c1cc2cc(Br)ccc2s1)C(=O)Nc1cccn(CC(=O)NC2C3CC4CC(C3)CC2C4)c1=O` (stereo not given in full) in this work.
An IC50 of under 250 nM was found for `CNC(=O)C(=O)CC[C@H](NC(=O)c1[nH]c2ccccc2c1C)C(=O)Nc1cccn(CC(=O)NC2C3CC4CC(C3)CC2C4)c1=O` (stereo not given in full) in this work.
An IC50 of at most 25 nM was found for `CNC(=O)C(=O)CC[C@H](NC(=O)C1Cc2ccccc2C1)C(=O)Nc1cccn(CC(=O)NC2C3CC4CC(C3)CC2C4)c1=O` (stereo not given in full) in this work.
An IC50 of at most 25 nM was found for `CNC(=O)C(=O)CC[C@H](NC(=O)c1cc2ccccc2[nH]1)C(=O)Nc1cccn(CC(=O)NC2C3CC4CC(C3)CC2C4)c1=O` (stereo not given in full) in this work.
An IC50 of at most 25 nM was found for `CNC(=O)C(=O)CC[C@H](NC(=O)c1cc2cccc(F)c2s1)C(=O)Nc1cccn(CC(=O)NC2C3CC4CC(C3)CC2C4)c1=O` (stereo not given in full) in this work.
An IC50 of at most 25 nM was found for `CNC(=O)C(=O)CC[C@H](NC(=O)c1cc2ccccc2s1)C(=O)Nc1cccn(CC(=O)NC2C3CC4CC(C3)CC2C4)c1=O` (stereo not given in full) in this work.

From ChEMBL document CHEMBL5370687 (ACS Med Chem Lett, 2023)
